Results on 28 molecules are retold here after PubChem BioAssay (NCI).

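Tested at 5 concentrations; 48 h exposure; 96-well plates; endpoints linearly interpolated, else capped at highest concentration. TGI marks complete inhibition of growth.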

In the first test the test system is RPMI-8226 leukemia. Nature of the test: NCI-60 cell line screen, 48 h.
Regarding `COc1cc2[nH]c(-c3ccccc3)cc(=O)c2c(OC)c1OC`, the TGI was more than 100 µM.

`CCOP(=O)(OCC)OC1CC(n2cc(C)c(=O)n(C)c2=O)OC1CO[Si](C)(C)C(C)(C)C` (configuration not stated) came in with a TGI of more than 100 µM.

As to `Cc1cc(C)nc(NS(=O)(=O)c2ccc(NC(=O)c3cccc4c(NNc5ccc(S(=O)(=O)N=C(N)N)cc5)c5ccccc5nc34)cc2)n1`, the TGI is more than 50 µM.

Molecule `O=C(CC(C(=O)c1ccco1)c1ccco1)c1ccco1` (configuration not stated) displayed a TGI of more than 100 µM.

Molecule `Nc1ccc(-c2nn3c(COc4ccc(Cl)cc4)nnc3s2)cc1` showed a TGI of more than 100 µM.

Turning to `O=C(CC(=O)Nc1ccccc1)NNC(c1cc(N=Nc2ccc(Br)cc2)ccc1O)P(O)O` (configuration not stated), the TGI is more than 10 µM.

`CCOC(=O)C1CCC(=O)N1C(=O)c1ccccc1Cl` (configuration not stated) registered a TGI of more than 100 µM.

As to `CCOC(=O)c1ccc(Nc2nc3ccc(C(F)(F)F)cc3nc2C(=O)OCC)cc1`, the TGI is more than 100 µM.

With `O=C1C(C(O)(C(F)(F)F)C(F)(F)F)CCC1C(O)(C(F)(F)F)C(F)(F)F` (configuration not stated), the TGI stood at 13.5 µM.

`COc1ccc(C2c3cc4c(cc3OC(NCCO)C2C)OCO4)cc1` (configuration not stated): the TGI turned out to be 55.3 µM.

`COc1nc2c(N3CCCC3)nc(N3CCNCC3)nc2nc1NCc1ccccc1` displayed a TGI of 3.96 µM.

On to `COC(=O)[C@H](Cc1ccccc1)NC(=O)N(CCC#N)CCN(C(=O)N[C@@H](Cc1ccccc1)C(=O)OC)c1ccccc1`, for which the TGI worked out at 43.9 µM.

In the case of `COC1C(O)C(O[C@H]2CC[C@@]3(C)C(CC[C@@H]4[C@@H]3CC[C@]3(C)[C@@H](C(C)OC5OC(CO)C(O)C(O)C5O)CC[C@]43O)C2)OC(C)C1OC1OC(CO)C(O)C(O)C1O` (some centres not stated), the TGI was more than 100 µM.

As to `Nc1nc(Nc2ccccc2)sc1C(=O)c1ccco1`, the TGI is 42.2 µM.

With `Cc1cc(NS(=O)(=O)c2ccc(NC(NC(=O)C(C(F)(F)F)C(F)(F)F)(C(F)(F)F)C(F)(F)F)cc2)no1`, the TGI is more than 100 µM.

In turn, `O=S1SC(=S)C2C=CC=CC21` (configuration not stated) returned a TGI of more than 100 µM.

Take `CC1(C)CC(C#Cc2ccccc2)CC(C)(C)N1O`: the TGI was determined as 69.1 µM.

`CCN1C(=O)C(=C/C=C/c2ccc(N(CC)CC)cc2)C(=O)N(CC)C1=S` gave a TGI of more than 100 µM.

As to `COc1ccc(NC(C)c2ccncc2)cc1` (configuration not stated), the TGI was more than 100 µM.

The molecule `O=C1C=CC(=O)C(CNc2ccc(C(=O)OCc3ccccc3)cc2)=C1` showed a TGI of more than 21 µM.

The molecule `CC(C)C1=C(O)C2=C(C(=O)C1=O)C1(C)CCCC(C)(C)C1C(O)C2OC=O` (configuration not stated) gave a TGI of 6.9 µM.

For the molecule `CC(C)[Si](OC/C(=C/COC(C)(C)C)[C@H]1CC=C(C(=O)c2ccccc2N2CN(C)C(=O)N(C)C2)C1)(C(C)C)C(C)C`, the TGI is 15.6 µM.

`CCN(CCCl)c1cc(CN(C)C)cc(NC(=O)c2ccc(C(=O)Nc3cccc(CN(C)C)c3)cc2)c1` registered a TGI of 8.73 µM.

`CCOC(=O)C1=CC(C)(C(=O)OCC)Nc2c(nc(N)[nH]c2=O)N1` (configuration not stated) had a TGI of more than 10 µM.

In the next test the test system is HL-60(TB) leukemia. Nature of the test: NCI-60 cell line screen, 48 h.
In turn, `COc1cc2[nH]c(-c3ccccc3)cc(=O)c2c(OC)c1OC` showed a TGI of more than 100 µM.

Take `CCOP(=O)(OCC)OC1CC(n2cc(C)c(=O)n(C)c2=O)OC1CO[Si](C)(C)C(C)(C)C` (configuration not stated): the TGI came out at 57.4 µM.

The molecule `Cc1cc(C)nc(NS(=O)(=O)c2ccc(NC(=O)c3cccc4c(NNc5ccc(S(=O)(=O)N=C(N)N)cc5)c5ccccc5nc34)cc2)n1` came in with a TGI of more than 50 µM.

As for `O=C(CC(C(=O)c1ccco1)c1ccco1)c1ccco1` (configuration not stated), the TGI is more than 100 µM.

Take `O=C1CS(=O)(=O)C(c2cccc(Oc3ccccc3)c2)N1c1cc(Cl)ccc1Cl` (configuration not stated): the TGI stood at 81.8 µM.

Molecule `Nc1ccc(-c2nn3c(COc4ccc(Cl)cc4)nnc3s2)cc1` displayed a TGI of more than 100 µM.

`COP(=O)(OC)C(Nc1ccc(Cc2ccc(NC(c3ccco3)P(=O)(OC)OC)cc2)cc1)c1ccco1` (configuration not stated): the TGI is more than 100 µM.

Turning to `O=C(CC(=O)Nc1ccccc1)NNC(c1cc(N=Nc2ccc(Br)cc2)ccc1O)P(O)O` (configuration not stated), the TGI amounted to 1.12 µM.

`CCOC(=O)C1CCC(=O)N1C(=O)c1ccccc1Cl` (configuration not stated) returned a TGI of more than 100 µM.

Molecule `CCOC(=O)c1ccc(Nc2nc3ccc(C(F)(F)F)cc3nc2C(=O)OCC)cc1` returned a TGI of more than 100 µM.

In turn, `O=C1C(C(O)(C(F)(F)F)C(F)(F)F)CCC1C(O)(C(F)(F)F)C(F)(F)F` (configuration not stated) came in with a TGI of 6.44 µM.

For `COc1ccc(C2c3cc4c(cc3OC(NCCO)C2C)OCO4)cc1` (configuration not stated), the TGI came to 43.3 µM.

As to `COc1nc2c(N3CCCC3)nc(N3CCNCC3)nc2nc1NCc1ccccc1`, the TGI worked out at 3.7 µM.

Turning to `Nc1nc(Nc2ccccc2)sc1C(=O)c1ccco1`, the TGI stood at 36.1 µM.

For `Cc1cc(NS(=O)(=O)c2ccc(NC(NC(=O)C(C(F)(F)F)C(F)(F)F)(C(F)(F)F)C(F)(F)F)cc2)no1`, the TGI was more than 100 µM.

As to `O=S1SC(=S)C2C=CC=CC21` (configuration not stated), the TGI is more than 100 µM.

`CC1(C)CC(C#Cc2ccccc2)CC(C)(C)N1O` had a TGI of 64.4 µM.

Molecule `Cc1ccc(NC(=O)/C(Cc2nc3ccc([N+](=O)[O-])cc3[nH]c2=O)=N\NC(=O)C[n+]2ccccc2)c(C)c1` registered a TGI of 81.8 µM.

`CCN1C(=O)C(=C/C=C/c2ccc(N(CC)CC)cc2)C(=O)N(CC)C1=S` registered a TGI of more than 100 µM.

`C/C(=C\CO)CC/C=C(\C)CNc1ccc([N+](=O)[O-])cc1` displayed a TGI of 57.2 µM.

For the molecule `CC(C)C1=C(O)C2=C(C(=O)C1=O)C1(C)CCCC(C)(C)C1C(O)C2OC=O` (configuration not stated), the TGI amounted to 18.7 µM.

Molecule `CCN(CCCl)c1cc(CN(C)C)cc(NC(=O)c2ccc(C(=O)Nc3cccc(CN(C)C)c3)cc2)c1` displayed a TGI of 0.444 µM.

Another test concerns EKVX NSCLC. As to the kind of experiment: NCI-60 cell line screen, 48 h.
In turn, `COc1cc2[nH]c(-c3ccccc3)cc(=O)c2c(OC)c1OC` came in with a TGI of more than 100 µM.

The molecule `CCOP(=O)(OCC)OC1CC(n2cc(C)c(=O)n(C)c2=O)OC1CO[Si](C)(C)C(C)(C)C` (configuration not stated) yielded a TGI of 68.4 µM.

In turn, `Cc1cc(C)nc(NS(=O)(=O)c2ccc(NC(=O)c3cccc4c(NNc5ccc(S(=O)(=O)N=C(N)N)cc5)c5ccccc5nc34)cc2)n1` registered a TGI of more than 50 µM.

Molecule `O=C(CC(C(=O)c1ccco1)c1ccco1)c1ccco1` (configuration not stated) registered a TGI of more than 100 µM.

Molecule `O=C1CS(=O)(=O)C(c2cccc(Oc3ccccc3)c2)N1c1cc(Cl)ccc1Cl` (configuration not stated) gave a TGI of more than 100 µM.

`Nc1ccc(-c2nn3c(COc4ccc(Cl)cc4)nnc3s2)cc1` had a TGI of more than 100 µM.

In turn, `COP(=O)(OC)C(Nc1ccc(Cc2ccc(NC(c3ccco3)P(=O)(OC)OC)cc2)cc1)c1ccco1` (configuration not stated) returned a TGI of 94.4 µM.

For the molecule `CCOC(=O)C1CCC(=O)N1C(=O)c1ccccc1Cl` (configuration not stated), the TGI is more than 100 µM.

`CCOC(=O)c1ccc(Nc2nc3ccc(C(F)(F)F)cc3nc2C(=O)OCC)cc1` came in with a TGI of more than 100 µM.

As to `O=C1C(C(O)(C(F)(F)F)C(F)(F)F)CCC1C(O)(C(F)(F)F)C(F)(F)F` (configuration not stated), the TGI is more than 100 µM.

`COc1ccc(C2c3cc4c(cc3OC(NCCO)C2C)OCO4)cc1` (configuration not stated) displayed a TGI of 92.5 µM.

`COc1nc2c(N3CCCC3)nc(N3CCNCC3)nc2nc1NCc1ccccc1` registered a TGI of 10.8 µM.

In turn, `COC(=O)[C@H](Cc1ccccc1)NC(=O)N(CCC#N)CCN(C(=O)N[C@@H](Cc1ccccc1)C(=O)OC)c1ccccc1` displayed a TGI of 73.2 µM.

`COC1C(O)C(O[C@H]2CC[C@@]3(C)C(CC[C@@H]4[C@@H]3CC[C@]3(C)[C@@H](C(C)OC5OC(CO)C(O)C(O)C5O)CC[C@]43O)C2)OC(C)C1OC1OC(CO)C(O)C(O)C1O` (some centres not stated) registered a TGI of more than 100 µM.

For the molecule `Nc1nc(Nc2ccccc2)sc1C(=O)c1ccco1`, the TGI turned out to be 38.7 µM.

As to `Cc1cc(NS(=O)(=O)c2ccc(NC(NC(=O)C(C(F)(F)F)C(F)(F)F)(C(F)(F)F)C(F)(F)F)cc2)no1`, the TGI is more than 100 µM.
